Assay results as given in patent US11739100B2, “2,3-dihydro-1h-imidazo{1,2-a}pyrimidin-5-one and this 1,2,3,4-tetrahydropyrimido{1,2-a}pyrimidin-6-one derivatives comprising a substituted morpholine, preparation thereof and pharmaceutical use thereof” (SANOFI, priority 2012, dated 2023).

Biological target: T1, recombinant Vps34 (Homo sapiens, UniProt Q8NEB9)
T1 construct: purchased Invitrogen PV5126
Experiment: Phosphorylation of phosphatidylinositol (PI) by Vps34 in vitro, ADP detected by TR-FRET (HTRF Transcreener ADP)
Type: biochemical
Details: 10 μM ATP, 55 μg/ml PI, approximately 3 nM Vps34, 1 hour at ambient temperature; absolute IC50, mean of two independent experiments; read-out: IC50 activity range

T1 sequence (Q8NEB9 whole entry): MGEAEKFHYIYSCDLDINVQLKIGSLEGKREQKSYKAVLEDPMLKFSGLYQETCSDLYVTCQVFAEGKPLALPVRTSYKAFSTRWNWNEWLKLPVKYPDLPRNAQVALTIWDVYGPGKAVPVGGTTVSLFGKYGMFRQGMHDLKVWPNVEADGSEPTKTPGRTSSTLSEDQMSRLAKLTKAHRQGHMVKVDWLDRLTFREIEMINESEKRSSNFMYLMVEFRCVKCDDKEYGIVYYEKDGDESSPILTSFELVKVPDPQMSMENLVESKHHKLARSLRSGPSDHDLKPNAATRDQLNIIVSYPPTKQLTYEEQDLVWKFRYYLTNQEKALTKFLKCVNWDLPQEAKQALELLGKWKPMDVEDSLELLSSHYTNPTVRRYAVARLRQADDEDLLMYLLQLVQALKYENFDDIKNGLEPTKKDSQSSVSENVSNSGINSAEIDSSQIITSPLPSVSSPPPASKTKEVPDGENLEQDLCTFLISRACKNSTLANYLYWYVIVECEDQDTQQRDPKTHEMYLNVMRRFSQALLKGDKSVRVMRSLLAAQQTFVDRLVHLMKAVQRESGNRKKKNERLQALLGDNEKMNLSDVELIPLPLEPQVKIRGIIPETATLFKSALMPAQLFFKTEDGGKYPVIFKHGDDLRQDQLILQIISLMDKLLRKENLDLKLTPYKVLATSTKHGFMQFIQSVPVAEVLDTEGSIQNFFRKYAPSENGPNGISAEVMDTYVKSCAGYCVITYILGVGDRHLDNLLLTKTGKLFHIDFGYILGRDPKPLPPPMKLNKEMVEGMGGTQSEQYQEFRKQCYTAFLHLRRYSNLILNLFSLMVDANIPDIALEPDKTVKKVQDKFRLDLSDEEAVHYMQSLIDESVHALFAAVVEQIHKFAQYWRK

Row | SMILES | IC50 [nM]
1 | C[C@@H]1COCCN1c1cc(=O)n2c(n1)N(Cc1ccon1)C(C)(C)CC2 [Example 298, 9-Isoxazol-3-ylmethyl-8,8-dimethyl-2-((R)-3-methylmorpholin-4-yl)-6,7,8,9-tetrahydro-pyrimido[1,2-a]-pyrimidin-4-one] | 10 to 100
2 | Cc1nc(CN2CC[C@H](C(F)(F)F)n3c2nc(N2CCOC[C@H]2C)cc3=O)no1 [Example 27, (R)-2-((R)-3-Methyl-morpholin-4-yl)-9-(5-methyl-[1,2,4]oxadiazol-3-yl-methyl)-6-trifluoromethyl-6,7,8,9-tetrahydro-pyrimido[1,2-a]-pyrimidin-4-one] | < 10
3 | C[C@@H]1COCCN1c1cc(=O)n2c(n1)N(Cc1ccnnc1)[C@H](C(F)(F)F)CC2 [Example 259, (S)-2-((R)-3-methyl-morpholin-4-yl)-9-pyridazin-4-ylmethyl-8-trifluoromethyl-6,7,8,9-tetrahydro-pyrimido[1,2-a]-pyrimidin-4-one] | < 10
4 | C[C@@H]1COCCN1c1nc2n(c(=O)c1F)CC[C@@H](C(F)(F)F)N2CC(=O)N1CCCCC1 [Example 237, (S)-3-Fluoro-2-((R)-3-methylmorpholin-4-yl)-9-(2-oxo-2-piperidin-1-ylethyl)-8-trifluoromethyl-6,7,8,9-tetrahydro-pyrimido[1,2-a]-pyrimidin-4-one] | < 10
5 | C[C@@H]1COCCN1c1cc(=O)n2c(n1)N(c1ccnc(Cl)c1)CC[C@@H]2C(F)(F)F [Example 108, (R)-9-(2-Chloro-pyridin-4-yl)-2-((R)-3-methylmorpholin-4-yl)-6-trifluoromethyl-6,7,8,9-tetrahydro-pyrimido[1,2-a]-pyrimidin-4-one] | < 10
6 | C[C@@H]1COCCN1c1cc(=O)n2c(n1)N(Cc1ccncc1Cl)[C@H](C(F)(F)F)CC2 [Example 66, (S)-9-(3-Chloro-pyridin-4-ylmethyl)-2-((R)-3-methyl-mopholin-4-yl)-8-trifluoromethyl-6,7,8,9-tetrahydro-pyrimido[1,2-a]-pyrimidin-4-one] | < 10
7 | O=C(CN1c2nc(N3CC4CCC(C3)O4)cc(=O)n2CC[C@H]1C(F)(F)F)c1ccccn1 [Example 171, (S)-2-(8-Oxa-3-aza-bicyclo[3.2.1]oct-3-yl)-9-(2-oxo-2-pyridin-2-ylethyl)-8-trifluoromethyl-6,7,8,9-tetrahydro-pyrimido[1,2-a]-pyrimidin-4-one] | 10 to 100
8 | CC1CN(c2cc(=O)n3c(n2)N(CC(=O)c2ccccn2)[C@H](C(F)(F)F)CC3)CCO1 (single isomer, unassigned) [Example 175] | > 100
9 | C[C@@H]1COCCN1c1cc(=O)n2c(n1)N(Cc1cscn1)[C@H](C(F)(F)F)CC2 [Example 78, (S)-2-((R)-3-Methyl-morpholin-4-yl)-9-thiazol-4-ylmethyl-8-trifluoromethyl-6,7,8,9-tetrahydro-pyrimido[1,2-a]-pyrimidin-4-one] | < 10
10 | CC(C)Oc1ccc(N2c3nc(N4CCOC[C@H]4C)cc(=O)n3CC[C@H]2C(F)(F)F)cn1 [Example 85, (S)-9-(6-Isopropoxy-pyridin-3-yl)-2-((R)-3-methylmorpholin-4-yl)-8-trifluoromethyl-6,7,8,9-tetrahydro-pyrimido[1,2-a]-pyrimidin-4-one] | < 10
11 | C[C@@H]1COCCN1c1nc2n(c(=O)c1F)CC[C@@H](C(F)(F)F)N2Cc1noc(C(C)(C)C)n1 [Example 54, (S)-9-(5-tert-Butyl-[1,2,4]oxadiazol-3-yl-methyl)-3-fluoro-2-((R)-3-methyl-morpholin-4-yl)-8-trifluoromethyl-6,7,8,9-tetrahydro-pyrimido[1,2-a]-pyrimidin-4-one] | < 10
12 | O=C(CN1c2nc(N3CC4CCC(C3)O4)cc(=O)n2CC[C@H]1C(F)(F)F)c1cccnc1 [Example 170, (S)-2-(8-Oxa-3-aza-bicyclo[3.2.1]oct-3-yl)-9-(2-oxo-2-pyridin-3-ylethyl)-8-trifluoromethyl-6,7,8,9-tetrahydro-pyrimido[1,2-a]-pyrimidin-4-one] | 10 to 100
13 | C[C@@H]1COCCN1c1cc(=O)n2c(n1)N(Cc1ccon1)[C@](C)(C(F)(F)F)CC2 [Example 215, (S)-9-Isoxazol-3-yl-methyl-8-methyl-2-((R)-3-methyl-morpholin-4-yl)-8-trifluoromethyl-6,7,8,9-tetrahydro-pyrimido[1,2-a]-pyrimidin-4-one] | < 10
14 | C[C@@H]1COCCN1c1cc(=O)n2c(n1)N(Cc1ccc(Cl)nc1)[C@H](C(F)(F)F)CC2 [Example 35, (S)-9-(6-Chloro-pyridin-3-ylmethyl)-2-((R)-3-methyl-morpholin-4-yl)-8-trifluoromethyl-6,7,8,9-tetrahydro-pyrimido[1,2-a]-pyrimidin-4-one] | < 10
15 | Cc1nocc1CN1c2nc(N3CCOC[C@H]3C)cc(=O)n2CC[C@H]1C(F)(F)F [Example 12, (S)-9-(3-Methyl-isoxazol-4-ylmethyl)-2-((R)-3-methyl-morpholin-4-yl)-8-trifluoromethyl-6,7,8,9-tetrahydro-pyrimido[1,2-a]-pyrimidin-4-one] | < 10

Second part, the compound after the results:

Row | IC50 [nM] | SMILES
16 | < 10 | Cc1nocc1CN1CC[C@H](C(F)(F)F)n2c1nc(N1CCOC[C@H]1C)c(F)c2=O [Example 146, (R)-3-Fluoro-9-(3-methylisoxazol-4-yl-methyl)-2-((R)-3-methylmorpholin-4-yl)-6-trifluoromethyl-6,7,8,9-tetrahydro-pyrimido[1,2-a]-pyrimidin-4-one]
17 | 10 to 100 | O=C(CN1c2nc(N3CC4CCC(C3)O4)c(F)c(=O)n2CC[C@H]1C(F)(F)F)C1CC1 [Example 273, (S)-9-(2-Cyclopropyl-2-oxoethyl)-3-fluoro-2-(8-oxa-3-aza-bicyclo[3.2.1]oct-3-yl)-8-trifluoromethyl-6,7,8,9-tetrahydro-pyrimido[1,2-a]-pyrimidin-4-one]
18 | < 10 | CC(C)C(=O)CN1c2nc(N3CCOC[C@H]3C)c(F)c(=O)n2C[C@@]1(C)C(F)(F)F [Example 185, (S)-6-Fluoro-2-methyl-7-((R)-3-methyl-morpholin-4-yl)-1-(3-methyl-2-oxobutyl)-2-trifluoromethyl-2,3-dihydro-1H-imidazo[1,2-a]-pyrimidin-5-one]
19 | 10 to 100 | O=c1cc(N2CC3CCC(C2)O3)nc2n1CC[C@@H](C(F)(F)F)N2Cc1ccno1 [Example 164, (S)-9-Isoxazol-5-yl-methyl-2-(8-oxa-3-azabicyclo[3.2.1]oct-3-yl)-8-trifluoromethyl-6,7,8,9-tetrahydro-pyrimido[1,2-a]-pyrimidin-4-one]
20 | > 100 | CCC1CN(c2cc(=O)n3c(n2)N(CC(=O)c2ccccn2)[C@H](C(F)(F)F)CC3)CCO1 (single isomer, unassigned) [Example 172]
21 | < 10 | C[C@@H]1COCCN1c1nc2n(c(=O)c1F)CC[C@@H](C(F)(F)F)N2CC(=O)C(C)(C)C [Example 97, (S)-9-(3,3-Dimethyl-2-oxobutyl)-3-fluoro-2-((R)-3-methyl-morpholin-4-yl)-8-trifluoromethyl-6,7,8,9-tetrahydro-pyrimido[1,2-a]-pyrimidin-4-one]
22 | < 10 | C[C@@H]1COCCN1c1nc2n(c(=O)c1F)[C@@H](C(F)(F)F)CCN2Cc1ncco1 [Example 129, (R)-3-Fluoro-2-((R)-3-methylmorpholin-4-yl)-9-oxazol-2-ylmethyl-6-trifluoromethyl-6,7,8,9-tetrahydro-pyrimido[1,2-a]-pyrimidin-4-one]
23 | < 10 | C[C@@H]1COCCN1c1cc(=O)n2c(n1)N(CC(C)(C)O)[C@H](C(F)(F)F)CC2 [Example 84, (S)-9-(2-Hydroxy-2-methylpropyl)-2-((R)-3-methylmorpholin-4-yl)-8-trifluoromethyl-6,7,8,9-tetrahydro-pyrimido[1,2-a]-pyrimidin-4-one]
24 | < 10 | C[C@@H]1COCCN1c1cc(=O)n2c(n1)N(CC(=O)c1ccccc1)[C@H](C(F)(F)F)CC2 [Example 99, (S)-2-((R)-3-Methyl-morpholin-4-yl)-9-(2-oxo-2-phenylethyl)-8-trifluoromethyl-6,7,8,9-tetrahydro-pyrimido[1,2-a]-pyrimidin-4-one]
25 | < 10 | C[C@@H]1COCCN1c1cc(=O)n2c(n1)N(CC(=O)C1CCOCC1)[C@H](C(F)(F)F)CC2 [Example 245, (S)-2-((R)-3-Methyl-morpholin-4-yl)-9-[2-oxo-2-(tetrahydro-pyran-4-yl)ethyl]-8-trifluoromethyl-6,7,8,9-tetrahydro-pyrimido[1,2-a]-pyrimidin-4-one]
26 | < 10 | C[C@@H]1COCCN1c1cc(=O)n2c(n1)N(CC(=O)C1(C)CCOCC1)[C@H](C(F)(F)F)CC2 [Example 310, (S)-2-((R)-3-Methyl-morpholin-4-yl)-9-[2-(4-methyl-tetrahydro-pyran-4-yl)-2-oxo-ethyl]-8-trifluoromethyl-6,7,8,9-tetrahydro-pyrimido[1,2-a]-pyrimidin-4-one]
27 | 10 to 100 | O=c1cc(N2CC3CCC(C2)O3)nc2n1CC[C@@H](C(F)(F)F)N2Cc1ccn(C(F)F)n1 [Example 167, (S)-9-(1-Difluoromethyl-1H-pyrazol-3-ylmethyl)-2-(8-oxa-3-aza-bicyclo[3.2.1]oct-3-yl)-8-trifluoromethyl-6,7,8,9-tetrahydro-pyrimido[1,2-a]-pyrimidin-4-one]
28 | < 10 | C[C@@H]1COC[C@@H](C)N1c1cc(=O)n2c(n1)N(c1cccnc1)[C@H](C(F)(F)F)CC2 [Example 160, (S)-2-((3R,5R)-3,5-Dimethylmorpholin-4-yl)-9-pyridin-3-yl-8-trifluoromethyl-6,7,8,9-tetrahydro-pyrimido[1,2-a]-pyrimidin-4-one]
29 | < 10 | C[C@@H]1COCCN1c1cc(=O)n2c(n1)N(Cc1ccno1)[C@H](C(F)(F)F)CC2 [Example 36, (S)-9-Isoxazol-5-yl-methyl-2-((R)-3-methylmorpholin-4-yl)-8-trifluoromethyl-6,7,8,9-tetrahydro-pyrimido[1,2-a]-pyrimidin-4-one]
30 | 10 to 100 | CC1CN(c2nc3n(c(=O)c2F)CC[C@@H](C(F)(F)F)N3CC(=O)C2CC2)CCO1 (single isomer, unassigned) [Example 322]
31 | < 10 | COCCN1c2nc(N3CCOC[C@H]3C)cc(=O)n2CC[C@H]1C(F)(F)F [Example 90, (S)-9-(2-Methoxy-ethyl)-2-((R)-3-methyl-morpholin-4-yl)-8-trifluoromethyl-6,7,8,9-tetrahydro-pyrimido[1,2-a]-pyrimidin-4-one]
